Test results published in publication PMC8836073, “Activatable Peptides for Rapid and Simple Visualization of Protease Activity Secreted in Living Cells” (International Journal of Molecular Sciences, 2022).

How the values were obtained:
[1] = target: T1, MMP2 secreted by HT-1080 cells (Homo sapiens, UniProt P08253); test: Pep1 intracellular fluorescence in HT-1080 cells with MMP2 inhibitor; type: cell-based; settings: HT-1080, Pep1 final 10 μM, MMP2 inhibitor (Figure S3)
T1 construct: endogenous in cells; host or cells: HT-1080 human fibrosarcoma cells
T1 sequence (P08253 110-660): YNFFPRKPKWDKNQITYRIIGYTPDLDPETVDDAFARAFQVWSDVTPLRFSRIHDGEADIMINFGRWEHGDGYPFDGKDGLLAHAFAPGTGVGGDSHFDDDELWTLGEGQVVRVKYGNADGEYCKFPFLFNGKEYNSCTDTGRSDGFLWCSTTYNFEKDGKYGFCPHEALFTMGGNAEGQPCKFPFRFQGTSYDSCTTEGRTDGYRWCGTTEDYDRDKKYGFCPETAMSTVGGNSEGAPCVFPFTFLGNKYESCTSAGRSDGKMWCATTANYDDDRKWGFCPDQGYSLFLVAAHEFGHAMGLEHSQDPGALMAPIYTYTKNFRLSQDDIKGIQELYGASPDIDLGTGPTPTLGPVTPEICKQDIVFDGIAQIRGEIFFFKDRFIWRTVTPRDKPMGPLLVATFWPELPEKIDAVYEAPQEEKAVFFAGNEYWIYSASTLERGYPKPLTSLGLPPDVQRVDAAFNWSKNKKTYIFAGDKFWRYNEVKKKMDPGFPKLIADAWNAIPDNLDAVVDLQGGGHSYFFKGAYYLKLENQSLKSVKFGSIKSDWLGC
Procedure: (§1) For live cell imaging, HT-1080 or HT-29 cells were cultured in Lab-Tek II chambered coverglass (Thermo Fisher Scientific) containers in RPMI-1640 media containing 10% FBS and 1× P/S at 37 °C. When the cells were 80% confluent, the culture medium was rinsed and changed to a fresh serum-free medium, followed by the addition of peptide probes at a final concentration of 10 μM. For organelle images, nuclei and lysosomes (or late endosomes) were stained with NucBlue (1 drop) and Lysotracker Red (50 nM) in serum-free media, respectively, and incubated in the dark for 10 min. After washing of the cells and removal of the chamber, cells adhering to the coverglass were subjected to bright-field or fluorescent images using a confocal microscope (Nikon C2si+, Japan). The excitation/emission wavelengths of NucBlue, FITC, and Lysotracker Red were 352/454 nm, 488/525 nm, and 577/590 nm, respectively. Typically, images were collected using a pixel dwell time of 10.3 μs on a 512 × 512 pixel image with 1 mW light power at the objective through a pinhole (60 μm) to reach the PMT. The frame rate was rather slow; the frame rate was about 0.255 FPS (frame per second) for a 512 × 512 frame (i.e., 1 frame per 3.9 s). To gain time-lapse images for FITC in living cells, one video file was constructed with images taken every 20 s for 30 min. […]

[2] = target: T2, active MMP2 (Homo sapiens, UniProt P08253); test: Fluorescent gel electrophoresis of peptide cleavage by active MMP2; type: biochemical; settings: peptide final 50 μM, active MMP2 final 0.1 μg in 40 μL; 20 mM Tris-HCl, 5 mM CaCl2, 100 mM NaCl, pH 7.6; 120 min, 37 °C; 0.8% agarose gel, FITC fluorescence
T2 construct: active MMP2 (No. PF023), and active MMP9 (No. PF024) were purchased from Merck Millipore; purchased Merck Millipore PF023
T2 sequence (P08253 110-660): T1 sequence (P08253 110-660)
Procedure: (§2) Fluorescent gel electrophoresis was performed on 0.8% agarose gel at 50 V for 60 min. The agarose gel was cast and run using 0.5 × TB buffer. For the protease assay, Pep1 or Pep2 (1 μL at 2 mM, final 50 μM) was mixed with active MMP2 or active MMP9 (1 μL, final 0.1 μg) at a final volume of 40 μL in standard reaction buffer (20 mM Tris-HCl containing 5 mM CaCl2 and 100 mM NaCl, pH 7.6). The reactants were incubated in a tube for 120 min at 37 °C to induce the enzyme reaction, and 30 μL of the solution were loaded onto the agarose gel. As a control, a solution of Pep1 or Pep 2 (1 μL at 2 mM) without enzymes was resuspended in a reaction buffer (for a total of 40 μL), and the aliquot (30 μL) was used in gel electrophoresis. The fluorescent image of the agarose was captured using a home-built transilluminator equipped with a blue light-emitting diode lamp. The original image underwent a pseudo-color imaging process using an image-editing function in Microsoft PowerPoint 365.

[3] = target: T3, active MMP9 (Homo sapiens, UniProt P14780); test: Fluorescent gel electrophoresis of peptide cleavage by active MMP9; type: biochemical; settings: peptide final 50 μM, active MMP9 final 0.1 μg in 40 μL; 20 mM Tris-HCl, 5 mM CaCl2, 100 mM NaCl, pH 7.6; 120 min, 37 °C; 0.8% agarose gel, FITC fluorescence
T3 construct: active MMP2 (No. PF023), and active MMP9 (No. PF024) were purchased from Merck Millipore; purchased Merck Millipore PF024
T3 sequence (P14780 107-707 limits assumed): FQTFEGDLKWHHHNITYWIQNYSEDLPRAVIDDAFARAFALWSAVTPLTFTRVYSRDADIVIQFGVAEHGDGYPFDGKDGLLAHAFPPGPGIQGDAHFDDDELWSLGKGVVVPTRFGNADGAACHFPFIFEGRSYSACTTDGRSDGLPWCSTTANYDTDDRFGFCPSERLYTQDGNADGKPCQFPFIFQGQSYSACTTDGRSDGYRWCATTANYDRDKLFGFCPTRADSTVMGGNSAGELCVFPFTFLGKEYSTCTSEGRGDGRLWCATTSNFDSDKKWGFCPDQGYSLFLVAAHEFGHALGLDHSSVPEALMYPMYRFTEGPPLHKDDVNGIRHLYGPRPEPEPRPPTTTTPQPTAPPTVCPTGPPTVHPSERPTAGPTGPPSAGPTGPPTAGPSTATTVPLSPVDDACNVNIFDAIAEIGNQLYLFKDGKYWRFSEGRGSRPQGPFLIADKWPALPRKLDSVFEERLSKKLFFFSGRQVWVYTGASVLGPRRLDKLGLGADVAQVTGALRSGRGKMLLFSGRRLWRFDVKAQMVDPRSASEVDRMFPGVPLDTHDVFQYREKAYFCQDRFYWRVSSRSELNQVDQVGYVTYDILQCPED
Procedure: as §2

[4] = system: HT-1080 cells (MMP2-positive); test: Live cell confocal imaging of peptide uptake in HT-1080 cells; type: cell-based, Human; settings: for intracellular fluorescence (confocal images, FITC channel): HT-1080, peptide final 10 μM in serum-free CM, 2 h after treatment
Procedure: For live cell imaging, HT-1080 or HT-29 cells were cultured in Lab-Tek II chambered coverglass (Thermo Fisher Scientific) containers in RPMI-1640 media containing 10% FBS and 1× P/S at 37 °C. When the cells were 80% confluent, the culture medium was rinsed and changed to a fresh serum-free medium, followed by the addition of peptide probes at a final concentration of 10 μM. For organelle images, nuclei and lysosomes (or late endosomes) were stained with NucBlue (1 drop) and Lysotracker Red (50 nM) in serum-free media, respectively, and incubated in the dark for 10 min. After washing of the cells and removal of the chamber, cells adhering to the coverglass were subjected to bright-field or fluorescent images using a confocal microscope (Nikon C2si+, Japan). The excitation/emission wavelengths of NucBlue, FITC, and Lysotracker Red were 352/454 nm, 488/525 nm, and 577/590 nm, respectively. Typically, images were collected using a pixel dwell time of 10.3 μs on a 512 × 512 pixel image with 1 mW light power at the objective through a pinhole (60 μm) to reach the PMT. The frame rate was rather slow; the frame rate was about 0.255 FPS (frame per second) for a 512 × 512 frame (i.e., 1 frame per 3.9 s). To gain time-lapse images for FITC in living cells, one video file was constructed with images taken every 20 s for 30 min. Imaging analysis was performed using the NIS-Elements microscope imaging software (Ver 2.0).

[5] = system: HT-29 cells (MMP2-negative); test: Live cell confocal imaging of peptide uptake in HT-29 cells; type: cell-based, Human
Procedure: as §1

[6] = system: HeLa cells; test: Peptide uptake in HeLa cells; type: cell-based; settings: unlike HT-1080 cells
[7] = FITC fluorescence; no reference given; cited from earlier work
Procedure: Figure 4A,B were nearly identical to the images obtained at 2 h in Figure 3A,B, respectively. […] There was no signi ...

| cleavage by active MMP2 (fluorescent band shift on agarose gel) [2] | cleavage by active MMP9 (fluorescent band shift on agarose gel) [3] | intracellular fluorescence (confocal images, FITC channel) ([4]; 37 °C) | uptake by HeLa cells [6] | Compound | other results |
| --- | --- | --- | --- | --- | --- |
|  |  |  |  | O=C(O)[C@@H](Cc1ccccc1)NS(=O)(=O)c1ccc(-c2ccccc2)cc1 [MMP2 inhibitor, (2R)-2-[(4-biphenylylsulfonyl)amino]-3-phenylpropionic acid] | effect on intracellular fluorescence intensity of Pep1 [1]: significantly reduced |
| strong fluorescent band shift | less effective than that by MMP2 | strong fluorescence images |  | EEEEGGIPVSLRSGGGRRRRK-FITC [Pep1] | cellular uptake ([4]; HT-1080 cells, 30 min, percentage of FITC-stained cells over total cells): 40~60%; time-lapse signal intensity (0 to 30 min) ([4]; living HT-1080, peptide final 10 μM, 37 °C, compared to Pep2, triplicate experiments): increased even after just 5 min; intracellular fluorescence (confocal images, FITC channel) ([5]; HT-29, peptide final 10 μM in serum-free CM, 2 h after treatment, 37 °C): No significant fluorescence images; time-lapse fluorescence (30 min) ([5]; living HT-29, Pep1 final 10 μM, 30 min): no significant increase |
| did not show any fluorescent band shifts | did not show any fluorescent band shifts | No significant fluorescence images |  | EEEEGGRRRRK-FITC [Pep2] |  |
|  |  | strong fluorescence images | did not take up | GGIPVSLRSGGGRRRRK-FITC [Pep3, FITC-labeled positive control peptide without E4] |  |
|  |  |  | did not take up | LRSGGG-R4-FITC [cleaved Pep1, fluorescent fragment of Pep1 after MMP2 cleavage] |  |
|  |  |  |  | fluorescein isothiocyanate [FITC] | pKa [7]: 6.5 |
